Test results taken from patent publication US9867879B2 (Vanderbilt University, priority 2015, dated 2018).
“Also recorded” adds a separate entry of the source. Where two headings read alike, the source gives them in different places.

Columns and labels:
[1] = test system: wild type S. aureus strain Newman; assay: Growth inhibition IC50, Newman anaerobic (fermenting); type: cell-based; settings: for IC50: Staphylococcus aureus, NEWMAN, 9 h of growth, anaerobic chamber, 95% confidence interval, >60 μM considered nontoxic; for toxicity to fermenting / anaerobic S. aureus (in words): anaerobic Newman and ΔmenB, from IC50 data
Experimental: (§1) Cultures of wild type S. aureus strain Newman and ΔmenB^14 were grown in aeration tubes aerobically at 37° C. with shaking for 15-18 h. Anaerobic cultures were prepared by growing bacteria at 37° C. without shaking in an anaerobic chamber for 15-18 h. Bacteria from each condition were subcultured 1:100 into TSB containing various concentrations of compound in a 96 well plate. Aerobic wild type and ΔmenB plates are incubated aerobically at 37° C. with shaking while anaerobic plates were grown in an anaerobic chamber (Coy) at 37° C. without shaking. The absorbance at 600 nm (OD600) was determined after 9 h of growth and the fraction of growth at each compound concentration is determined by dividing the OD600 by the vehicle control (DMSO) value. IC50s were calculated using Graphpad Prism 6 and errors are reported as 95% confidence intervals.
(§2) Wild type S. aureus strain Newman was grown in an anaerobic chamber in appropriate media to ensure exclusion of terminal electron acceptors sufficient to force the bacteria to ferment. […] The arbitrary cut off point for toxicity of 60 μM was chosen as many of the compounds were not entirely soluble above this concentration.

ΔmenB = assay: Growth inhibition IC50, ΔmenB; type: cell-based, S. aureus; settings: Staphylococcus aureus, 9 h, read-out: IC50 ΔmenB
Experimental: as §1, with “intervals. […]” for “intervals.”

[2] = test system: wild type S. aureus strain Newman; assay: Growth inhibition IC50, Newman aerobic; type: cell-based; settings: Staphylococcus aureus, NEWMAN, 95% confidence interval, >60 μM considered nontoxic
Experimental: as §1, §2

HssRS = assay: microbe, parasite or virus in culture; type: cell-based, S. aureus; settings: for HssRS activation in single point screen: 50 μM, fraction of activation relative to 1, cut-off 0.05, in words; for EC50: Staphylococcus aureus, 6 h; for Efficacy: percent activation of HssRS compared to 1 at 50 μM, error one standard deviation
Experimental: Previously reported strains were used.^11 Cultures grown overnight in 5 ml TSB with 10 μg mL^−1 chloramphenicol for 15-18 h were subcultured 1:100 into 0.5 mL TSB with 10 μg mL^−1 chloramphenicol containing compound and incubated at 37° C., 180 rpm for 6 h. Cells were washed and lysed as previously described. 200 μL of a 200 μM catechol solution in 100 mM potassium phosphate (pH 8.0) was added to 20 μL of lysate and the oxidation of catechol was followed by monitoring absorbance at 375 nm for 10 min. Samples were normalized to protein concentration as determined by BCA assay (Pierce).
The above XylE procedure was followed using different concentrations of compound. The data were then entered into Graphpad Prism 6 and fit to a curve to determine EC50 values.
HssRS activation. The library was screened for activation of the heme stress response as an indicator for activation of heme biosynthesis in S. aureus. We began by screening at the single point concentration of 50 μM using a previously described reporter assay (FIG. 4).^11 In this assay, Newman harboring a plasmid with the hrt promoter fused to xylE, a gene encoding a catechol oxidase, is treated with compound for six hours, the bacteria lysed, and the oxidation of catechol by XylE quantified by spectrophotometry. An increase in absorbance due to the oxidation of catechol indicates elevated levels of xylE transcription and hrt promoter activity. Results are expressed as the fraction of activation of HssRS by the compound compared to 1. […] With reference to FIG. 8, activation of HssRS by 3a and 3b at 50 μM. Activity is presented as the fraction of activation by the indicated derivative relative to 1 at 50 μM.

[3] = 9 h, read-out: IC50 Newman aerobic, 9 h of growth, aerobic

SMILES | IC50 [1] [µM] | toxicity to fermenting / anaerobic S. aureus (in words) [1] | IC50 (ΔmenB) [µM] | IC50 [2, 3] [µM] | HssRS activation in single point screen (HssRS) | EC50 (HssRS) [µM] | EC50 (HssRS; read-out: pEC50 (converted)) [µM] | Efficacy (HssRS) [%] | drop in efficacy (HssRS; compared to 1) [%] | HssRS activation (in words) (HssRS; summary statements, concentration not fixed) | IC50 ([2]; 9 h of growth, aerobic, read-out: IC50 Newman aerobic) [µM] | toxicity relative to 4b ([1]; fermenting wildtype S. aureus and ΔmenB)
CCc1cc(-c2ccccc2O)n[nH]1 [Compound 2l, 2-(5-ethyl-1H-pyrazol-3-yl)phenol] | > 60 | nontoxic under all conditions | > 60 | > 60 | – | – | – | – | – | – | – | –
COc1ccc(-c2cc(-c3ccco3)[nH]n2)c(O)c1 [Compound 1b, 2-(5-(furan-2-yl)-1H-pyrazol-3-yl)-5-methoxyphenol] | > 60 | relatively nontoxic to fermenting S. aureus | > 60 | > 60 | modest loss of activity compared to 1 | 50.2 | 50.1 | 26.2 ± 6.7 | – | – | – | –
Oc1ccccc1-c1cc(-c2cc(F)ccc2F)[nH]n1 [Compound 2f, 2-(5-(2,5-difluorophenyl)-1H-pyrazol-3-yl)phenol] | > 60 | eliminates this toxicity | > 60 | > 60 | comparable to 1a in activity | 13.6 | 12.6 | 30.1 ± 8.0 | ~70 | – | – | –
Cn1nc(-c2ccc3ccccc3c2O)cc1-c1ccco1 [Compound 4b, 2-(5-(furan-2-yl)-1-methyl-1H-pyrazol-3-yl)naphthalen-1-ol] | 4.27 | – | 3.3 | > 60 | complete loss of activity | – | – | – | – | – | – | –
COc1ccccc1-c1cc(-c2ccco2)[nH]n1 [Compound 1d, 5-(furan-2-yl)-3-(2-methoxyphenyl)-1H-pyrazole] | > 60 | – | > 60 | > 60 | loss of HssRS activation compared to 1 and 1a | – | – | – | – | – | – | –
Oc1ccccc1-c1cc(-c2ccoc2)[nH]n1 [Compound 2b] | > 60 | – | > 60 | > 60 | – | – | – | – | – | – | – | –
Oc1ccccc1-c1cc(-c2ccccn2)[nH]n1 [Compound 2g] | > 60 | – | > 60 | > 60 | – | – | – | – | – | – | – | –
Cc1cc(-c2ccccc2O)n[nH]1 [Compound 2k, 2-(5-methyl-1H-pyrazol-3-yl)phenol] | > 60 | nontoxic under all conditions | > 60 | > 60 | – | – | – | – | – | – | – | –
O=C(Nc1ccccc1-c1cc(-c2ccco2)[nH]n1)c1cccc2ccccc12 [Compound 1k, N-(2-(5-(furan-2-yl)-1H-pyrazol-3-yl)phenyl)-1-naphthamide] | 13.4 | – | 5.89 | > 60 | – | – | – | – | – | – | – | –
COc1c(-c2cc(-c3ccco3)[nH]n2)ccc2ccccc12 [Compound 1c, 5-(furan-2-yl)-3-(1-methoxynaphthalen-2-yl)-1H-pyrazole] | > 60 | eliminates toxicity | > 60 | > 60 | complete loss of activity | – | – | – | – | – | – | –
O=C(Nc1ccccc1-c1cc(-c2ccco2)[nH]n1)c1ccco1 [Compound 1l, N-(2-(5-furan-2-yl)-1H-pyrazol-3-yl)phenylfuran-2-carboxamide] | 28.8 | – | 21.4 | > 60 | – | – | – | – | – | – | – | –
c1ccc(-c2cc(-c3ccco3)[nH]n2)cc1 [Compound 1g, 5-(furan-2-yl)-3-phenyl-1H-pyrazole] | > 60 | – | > 60 | > 60 | loss of HssRS activation compared to 1 and 1a | – | – | – | – | – | – | –
CS(=O)(=O)Nc1ccccc1-c1cc(-c2ccco2)[nH]n1 [Compound 1h, N-(2-(5-(furan-2-yl)-1H-pyrazol-3-yl)phenyl)methanesulfonamide] | > 60 | nontoxic under fermentative conditions | > 60 | > 60 | loss of HssRS activation compared to 1 and 1a | – | – | – | – | – | – | –
Oc1ccccc1-c1cc[nH]n1 [Compound 2j, 2-(1H-pyrazol-3-yl)phenol] | > 60 | nontoxic under all conditions | > 60 | > 60 | eliminates activity compared to 1 and 1a | – | – | – | – | – | – | –
Oc1ccccc1-c1cc(-c2ccccc2)[nH]n1 [Compound 2c, 2-(5-phenyl-1H-pyrazol-3-yl)phenol] | 24 | anaerobic toxicity similar to 1; also recorded: restores toxicity comparable to 1 | 25.2 | – | restore activity comparable to 1 | 14.6 | 21.9 | 87.8 ± 23.7 | – | maintains HssRS activity | > 60 | –
COc1ccccc1-c1cc(-c2ccccc2F)[nH]n1 [Compound 3b, 5-(2-fluorophenyl)-3-(2-methoxyphenyl)-1H-pyrazole] | > 60 | eliminates toxicity | > 60 | > 60 | – | – | – | – | – | – | – | –
Cn1nc(-c2ccco2)cc1-c1ccc2ccccc2c1O [Compound 4a, 2-(3-(furan-2-yl)-1-methyl-1H-pyrazol-5-yl)naphthalen-1-ol] | 26.5 | maintains toxicity comparable to the parent molecule | 15.7 | > 60 | complete loss of activity | – | – | – | – | – | – | approximately five times less toxic
Oc1ccccc1-c1cc(-c2cccnc2)[nH]n1 [Compound 2h, 2-(5-(pyridin-3-yl)-1H-pyrazol-3-yl)phenol] | > 60 | – | > 60 | > 60 | – | – | – | – | – | – | – | –
Oc1cccc(-c2cc(-c3ccco3)[nH]n2)c1 [Compound 1e, 3-(5-(furan-2-yl)-1H-pyrazol-3-yl)phenol] | > 60 | – | > 60 | > 60 | loss of HssRS activation compared to 1 and 1a | – | – | – | – | – | – | –
COc1ccc(C(=O)Nc2ccccc2-c2cc(-c3ccco3)[nH]n2)cc1 [Compound 1j, N-(2-(5-(furan-2-yl)-1H-pyrazol-3-yl)phenyl)-4-methoxybenzamide] | 11.6 | – | 6.63 | > 60 | – | – | – | – | – | – | – | –
Oc1ccc(-c2cc(-c3ccco3)[nH]n2)cc1 [Compound 1f] | > 60 | – | > 60 | > 60 | loss of HssRS activation compared to 1 and 1a | – | – | – | – | – | – | –
CC(C)(C)c1cc(-c2ccccc2O)n[nH]1 [Compound 2m, 2-(5-(tert-butyl)-1H-pyrazol-3-yl)phenol] | > 60 | nontoxic under all conditions | > 60 | > 60 | – | – | – | – | – | – | – | –
Oc1ccccc1-c1cc(C2CCCC2)[nH]n1 [Compound 2n, 2-(5-cyclopentyl-1H-pyrazol-3-yl)phenol] | 25.3 | comparably toxic to 1 | 29.7 | > 60 | – | – | – | – | – | – | – | –
